What was measured:
H1299 = assay: cells; type: cell-based, human
HCT-15 [1] = assay: cells; type: cell-based, human
HT29 [2] = assay: cells; type: cell-based, human
SF-268 [3] = assay: cells; type: cell-based, human; conditions: read-out: GI50 SF-268 CNS
SKOV3 = assay: cells; type: cell-based, human; conditions: read-out: GI50 SKOV3 ovary
HL-60 (TB) = type: cell-based, human
K-562 = assay: NCI 60 Human Tumor Cell Line Anticancer Screen; type: cell-based; conditions: K-562, Leukemia
MOLT-4 = assay: NCI 60 Human Tumor Cell Line Anticancer Screen; type: cell-based; conditions: MOLT-4, Leukemia
A549/ATCC = assay: NCI 60 Human Tumor Cell Line Anticancer Screen; type: cell-based; conditions: Non-small cell lung
EKVX = assay: NCI 60 Human Tumor Cell Line Anticancer Screen; type: cell-based; conditions: Non-small cell lung
HOP-62 = assay: NCI 60 Human Tumor Cell Line Anticancer Screen; type: cell-based; conditions: HOP-62, Non-small cell lung
HOP-92 = assay: NCI 60 Human Tumor Cell Line Anticancer Screen; type: cell-based; conditions: HOP-92, Non-small cell lung
NCI-H460 = assay: NCI 60 Human Tumor Cell Line Anticancer Screen; type: cell-based; conditions: NCI-H460, Non-small cell lung
NCI-H522 = assay: NCI 60 Human Tumor Cell Line Anticancer Screen; type: cell-based; conditions: NCI-H522, Non-small cell lung
HCC-2998 = assay: NCI 60 Human Tumor Cell Line Anticancer Screen; type: cell-based; conditions: HCC-2998, Colon
HCT-116 = assay: NCI 60 Human Tumor Cell Line Anticancer Screen; type: cell-based; conditions: HCT-116, Colon
HCT-15 [4] = assay: NCI 60 Human Tumor Cell Line Anticancer Screen; type: cell-based; conditions: HCT-15, Colon
HT29 [5] = assay: NCI 60 Human Tumor Cell Line Anticancer Screen; type: cell-based; conditions: HT29, Colon
KM12 = assay: NCI 60 Human Tumor Cell Line Anticancer Screen; type: cell-based; conditions: KM12, Colon
SF-268 [6] = assay: NCI 60 Human Tumor Cell Line Anticancer Screen; type: cell-based; conditions: SF-268, CNS
SF-539 = assay: NCI 60 Human Tumor Cell Line Anticancer Screen; type: cell-based; conditions: SF-539, CNS
SNB-19 = assay: NCI 60 Human Tumor Cell Line Anticancer Screen; type: cell-based; conditions: SNB-19, CNS
SNB-75 = assay: NCI 60 Human Tumor Cell Line Anticancer Screen; type: cell-based; conditions: SNB-75, CNS
U251 = assay: NCI 60 Human Tumor Cell Line Anticancer Screen; type: cell-based; conditions: U251, CNS
PC-3 = assay: NCI 60 Human Tumor Cell Line Anticancer Screen; type: cell-based; conditions: PC-3, Prostate
DU-145 = assay: NCI 60 Human Tumor Cell Line Anticancer Screen; type: cell-based; conditions: DU-145, Prostate
SK-MEL-5 = assay: NCI 60 Human Tumor Cell Line Anticancer Screen; type: cell-based; conditions: SK-MEL-5, Melanoma
UACC-62 = assay: NCI 60 Human Tumor Cell Line Anticancer Screen; type: cell-based; conditions: UACC-62, Melanoma
IGROV1 = assay: NCI 60 Human Tumor Cell Line Anticancer Screen; type: cell-based; conditions: IGROV1, Ovary
OVCAR-8 = assay: NCI 60 Human Tumor Cell Line Anticancer Screen; type: cell-based; conditions: OVCAR-8, Ovary
NCI/ADR-RES = assay: NCI 60 Human Tumor Cell Line Anticancer Screen; type: cell-based; conditions: Ovary
786-0 = assay: NCI 60 Human Tumor Cell Line Anticancer Screen; type: cell-based; conditions: 786-0, Renal
ACHN = assay: NCI 60 Human Tumor Cell Line Anticancer Screen; type: cell-based; conditions: Renal
TK-10 = assay: NCI 60 Human Tumor Cell Line Anticancer Screen; type: cell-based; conditions: TK-10, Renal
UO-31 = assay: NCI 60 Human Tumor Cell Line Anticancer Screen; type: cell-based; conditions: UO-31, Renal
MCF7 = assay: NCI 60 Human Tumor Cell Line Anticancer Screen; type: cell-based; conditions: MCF7, Breast
MDA-MB-231 = assay: NCI 60 Human Tumor Cell Line Anticancer Screen; type: cell-based; conditions: MDA-MB-231, Breast
HS 578T = assay: NCI 60 Human Tumor Cell Line Anticancer Screen; type: cell-based; conditions: Breast
T-47D = assay: NCI 60 Human Tumor Cell Line Anticancer Screen; type: cell-based; conditions: Breast
MDA-MB-468 = assay: NCI 60 Human Tumor Cell Line Anticancer Screen; type: cell-based; conditions: MDA-MB-468, Breast

Question: With `CON(CCCCc1ccc(N(CCCl)CCCl)cc1)C1OCC(O)C1O` (stereo not drawn) [Compound 60] as the molecule, how does the “improved activity over the parent drug” value (H1299) read?
Answer: The value was 13 fold.

Question: What about the GI50 (H1299; read-out: GI50 H1299 lung (−p53)) of the same molecule?
Answer: Its GI50 is 0.37 ± 0.04 µM.

Question: What about the “improved activity over the parent drug” value (HCT-15 [1]) of the same molecule?
Answer: Its value is 15 fold.

Question: What about the GI50 (HCT-15 [1]; read-out: GI50 HCT-15 colorectal) of the same molecule?
Answer: Its GI50 is 0.53 ± 0.05 µM.

Question: And the “improved activity over the parent drug” value (HT29 [2])?
Answer: The value was 12 fold.

Question: What about the GI50 (HT29 [2]; read-out: GI50 HT29 colorectal) of the same molecule?
Answer: The GI50 was 0.41 ± 0.06 µM.

Question: And the GI50 (SF-268 [3])?
Answer: Its GI50 is 1.5 ± 0.1 µM.

Question: What about the GI50 (SKOV3) of the same molecule?
Answer: Its GI50 is 1.5 ± 0.1 µM.

Question: What about the GI50 (HL-60 (TB)) of the same molecule?
Answer: Its GI50 is 1.88 µM.

Question: What about the “Inhibition at 10 μM” value (HL-60 (TB)) of the same molecule?
Answer: The value was 68.31%.

Question: And the “Inhibition at 10 μM” value (K-562)?
Answer: Its value is 88.55%.

Question: What about the GI50 (MOLT-4) of the same molecule?
Answer: Its GI50 is 1.22 µM.

Question: And the “Inhibition at 10 μM” value (MOLT-4; 10 μM)?
Answer: Its value is 64.41%.

Question: What about the GI50 (A549/ATCC) of the same molecule?
Answer: The GI50 was 12.2 µM.

Question: And the “Inhibition at 10 μM” value (A549/ATCC; 10 μM)?
Answer: The value was 69.72%.

Question: What about the GI50 (EKVX) of the same molecule?
Answer: The GI50 was 37.9 µM.

Question: What about the “Inhibition at 10 μM” value (EKVX; 10 μM) of the same molecule?
Answer: Its value is 91.24%.

Question: What about the GI50 (HOP-62) of the same molecule?
Answer: The GI50 was 8.28 µM.

Question: And the “Inhibition at 10 μM” value (HOP-62; 10 μM)?
Answer: Its value is 73.20%.

Question: What about the GI50 (HOP-92) of the same molecule?
Answer: The GI50 was 4.03 µM.

Question: And the “Inhibition at 10 μM” value (HOP-92; 10 μM)?
Answer: The value was 58.81%.

Question: And the GI50 (NCI-H460)?
Answer: Its GI50 is 3.76 µM.

Question: What about the “Inhibition at 10 μM” value (NCI-H460; 10 μM) of the same molecule?
Answer: The value was 35.80%.

Question: What about the GI50 (NCI-H522) of the same molecule?
Answer: The GI50 was 10 µM.

Question: What about the “Inhibition at 10 μM” value (NCI-H522; 10 μM) of the same molecule?
Answer: The value was 52.38%.

Question: What about the “Inhibition at 10 μM” value (HCC-2998) of the same molecule?
Answer: The value was 73.29%.

Question: What about the GI50 (HCT-116) of the same molecule?
Answer: The GI50 was 14.5 µM.

Question: And the “Inhibition at 10 μM” value (HCT-116; 10 μM)?
Answer: Its value is 69.37%.

Question: What about the GI50 (HCT-15 [4]) of the same molecule?
Answer: Its GI50 is 19.7 µM.

Question: What about the “Inhibition at 10 μM” value (HCT-15 [4]; 10 μM) of the same molecule?
Answer: The value was 77.10%.

Question: And the GI50 (HT29 [5])?
Answer: Its GI50 is 26.6 µM.

Question: What about the “Inhibition at 10 μM” value (HT29 [5]; 10 μM) of the same molecule?
Answer: The value was 70.71%.

Question: What about the GI50 (KM12) of the same molecule?
Answer: Its GI50 is 30 µM.

Question: And the “Inhibition at 10 μM” value (KM12; 10 μM)?
Answer: The value was 97.57%.

Question: And the GI50 (SF-268 [6])?
Answer: The GI50 was 5.75 µM.

Question: What about the “Inhibition at 10 μM” value (SF-268 [6]; 10 μM) of the same molecule?
Answer: Its value is 67.83%.

Question: And the GI50 (SF-539)?
Answer: The GI50 was 8.8 µM.

Question: What about the “Inhibition at 10 μM” value (SF-539; 10 μM) of the same molecule?
Answer: The value was 51.79%.

Question: What about the GI50 (SNB-19) of the same molecule?
Answer: Its GI50 is 33.4 µM.

Question: And the “Inhibition at 10 μM” value (SNB-19; 10 μM)?
Answer: The value was 65.81%.

Question: What about the GI50 (SNB-75) of the same molecule?
Answer: The GI50 was 19.5 µM.

Question: What about the “Inhibition at 10 μM” value (SNB-75; 10 μM) of the same molecule?
Answer: The value was 66.74%.

Question: And the GI50 (U251)?
Answer: Its GI50 is 13.1 µM.

Question: What about the “Inhibition at 10 μM” value (U251; 10 μM) of the same molecule?
Answer: Its value is 59.94%.

Question: And the GI50 (PC-3)?
Answer: Its GI50 is 11.7 µM.

Question: And the “Inhibition at 10 μM” value (PC-3; 10 μM)?
Answer: The value was 72.52%.

Question: What about the GI50 (DU-145) of the same molecule?
Answer: Its GI50 is 4.84 µM.

Question: And the “Inhibition at 10 μM” value (DU-145; 10 μM)?
Answer: The value was 56.78%.

Question: And the GI50 (SK-MEL-5)?
Answer: Its GI50 is 17.7 µM.

Question: And the “Inhibition at 10 μM” value (SK-MEL-5; 10 μM)?
Answer: The value was 79.00%.

Question: And the GI50 (UACC-62)?
Answer: Its GI50 is 1.69 µM.

Question: What about the “Inhibition at 10 μM” value (UACC-62; 10 μM) of the same molecule?
Answer: The value was 52.06%.

Question: What about the GI50 (IGROV1) of the same molecule?
Answer: The GI50 was 1.21 µM.

Question: And the GI50 (OVCAR-8)?
Answer: Its GI50 is 9.13 µM.

Question: And the “Inhibition at 10 μM” value (OVCAR-8; 10 μM)?
Answer: The value was 68.13%.

Question: And the GI50 (NCI/ADR-RES)?
Answer: Its GI50 is 4.61 µM.

Question: And the “Inhibition at 10 μM” value (NCI/ADR-RES; 10 μM)?
Answer: Its value is 61.54%.

Question: What about the GI50 (786-0) of the same molecule?
Answer: The GI50 was 6.16 µM.

Question: And the “Inhibition at 10 μM” value (786-0; 10 μM)?
Answer: Its value is 67.90%.

Question: And the GI50 (ACHN)?
Answer: Its GI50 is 4.34 µM.

Question: What about the “Inhibition at 10 μM” value (ACHN; 10 μM) of the same molecule?
Answer: The value was 14.27%.

Question: What about the GI50 (TK-10) of the same molecule?
Answer: The GI50 was 31.7 µM.

Question: What about the “Inhibition at 10 μM” value (TK-10; 10 μM) of the same molecule?
Answer: The value was 97.20%.

Question: And the GI50 (UO-31)?
Answer: The GI50 was 0.856 µM.

Question: What about the “Inhibition at 10 μM” value (UO-31; 10 μM) of the same molecule?
Answer: The value was 54.43%.

Question: What about the GI50 (MCF7) of the same molecule?
Answer: Its GI50 is 4.51 µM.

Question: What about the “Inhibition at 10 μM” value (MCF7; 10 μM) of the same molecule?
Answer: The value was 32.40%.

Question: And the GI50 (MDA-MB-231)?
Answer: Its GI50 is 1.39 µM.

Question: And the “Inhibition at 10 μM” value (MDA-MB-231; 10 μM)?
Answer: The value was 87.54%.

Question: What about the GI50 (HS 578T) of the same molecule?
Answer: The GI50 was 24.7 µM.

Question: What about the “Inhibition at 10 μM” value (HS 578T; 10 μM) of the same molecule?
Answer: Its value is 139.25%.

Question: And the GI50 (T-47D)?
Answer: The GI50 was 6.37 µM.

Question: What about the “Inhibition at 10 μM” value (T-47D; 10 μM) of the same molecule?
Answer: Its value is 48.01%.

Question: And the GI50 (MDA-MB-468)?
Answer: Its GI50 is 7.25 µM.

Question: And the “Inhibition at 10 μM” value (MDA-MB-468; 10 μM)?
Answer: The value was 43.87%.
